Several values for one entry are separate records, joined by “and”; a condition that tells them apart may be missing. Equal entries are not always repeated.
Tests used:
strain NGCI-070 = assay: Extractive fermentation, examples GLNOR661A-666A, 690A-695A, 721A-726A, 749A-754A; conditions: pH 5.5, fermentation broth
Description: (§1) Fermentation conditions: 30% pO2; temperature: 30° C.; pH 5.5 (unless noted otherwise); initial batch glucose: 20 g/L, maintained during production.
(§2) Both HPLC and GC analyses were used for the quantization of isobutanol in the aqueous phase and solvent phase respectively. Isobutanol in the aqueous was measured after filtration through a 0.2 um nylon filter with a HPLC (Agilent 1100, Agilent, Santa Clara, Calif.) under the following conditions: • Column: Bio-Rad, Aminex HPX-87H, No. 125-0143 • Mobile Phase: […] • Injection Volume: 10 uL • Flow Rate: 0.6 mL/min • Run Time: 22.5 minutes • Column Temperature: 65° C. • Detectors: Refractive Index • Detector Temperature: 40° C. • UV Detection: 210 nm, 4 nm bandwidth, Ref 360 nm, 100 nm bandwidth.
(§3) The solvent phase was measured with a GC (HP6890, Agilent, Santa Clara, Calif.) under the following conditions: • Column: J&W Scientific DB Waxter (50 m×0.32 mm ID, 1 um film) • Gas Carrier: Helium 4 mL/min • Injection Volume: 2 uL • Make Up Flow Rate: 40 mL/min • Run Time: 29 minutes • Oven Temperature: 40° C. for 5 min, 40° C. to 230° C. @10° C./min., 5 min 230° C. • Injector Split: 1:5 @ 250° C. • Flame Ionization Detection: 250° C.
(§4) The extractants were added to the fermentor broth at time zero exposing the culture to the solvent for the duration of the fermentation. Isobutanol concentrations in both the aqueous phase and organic phase were measured to calculate the partitioning coefficient of the extraction solvent. Glucose utilization was used to determine the biocompatability of the microorganism to the extractant.
(§5) The fermentations were carried out as described with the strain NGCI-065. The inoculum was prepared in two stages and incubated at 30° C. and 250 rpm in an incubator shaker (Innova 4200, New Brunswick Scientific, Edison, N.J.). The first stage or pre-seed was inoculated from a frozen glycerol seed stock, two vials were placed into a 250 mL flask with 30 mL of filter sterilized pre-seed media (Table 4) and grown for 24 hours to an OD of approximately 2. 15 mL of the pre-seed was then transferred to a 2 L flask with 270 mL of filter sterilized seed media (Table 5) for the second stage which was incubated for 24 hours. 30 mL of filter sterilized 10× YEP and 300 mL of filter sterilized 90-95% oleyl alcohol was then added and incubated for an additional 24 hours to a final OD of approximately 5-10 in the aqueous phase of the seed culture. For examples GLNOR639 and GLNOR640, the pH was 4.5.
Fermentation vessels (Applikon AD1010 Bioreactor, Applikon Biotechnology, Dover, N.J.) were sterilized with diH2O for 30 minutes (Amsco Renaissance 3033 Revas Steam Sterilizer, Steris Corporation, Mentor, Ohio). Once the vessels were finished sterilization in the autoclave and cooled to 30° C., the sterile diH2O was removed and the filter sterilized fermentation media was added to a volume of 280 mL. 70 mL of the aqueous phase from the second stage seed flasks was added to the fermentation vessel for a final aqueous volume of 350 mL. Immediately after inoculation, 100 mL of 10× YEP media supplementation was added as well as 450 mL of the respective extraction solvent for a final solvent to broth ratio of approximately 1:1. Fermentation set-point conditions were temperature 30° C., pO2 30%, pH 5.5 for GLNOR635A-638A and pH 4.5 for GLNOR639A-640A. The fermentation was sampled approximately every 8 hours from the time of inoculation to monitor glucose concentration, which was maintained between 5-20 g/L through the addition of 50% w/w glucose solution, and analyzed for isobutanol accumulation in both the aqueous phase and the extractant phase. Enough sample volume was taken at each time point to obtain a sample from both of the phases, then those samples were centrifuged in order to ensure a clean cut of each.
The examples in this set were performed the same as in the previous examples GLNOR635A-640A with the exception of the strain, pH, and supplement addition at time zero.

[1] = tested on: Saccharomyces butanologen NGCI-070; assay: Shake flask incubation with fermentation broth, glucose consumption followed over time; format: cell-based, Saccharomyces cerevisiae; conditions: 3 parts broth to 1 part extractant
Description: Fatty amide/fatty acid aqueous ammonia preparation (1), and a preparation (1 a) constituted by preparation (1) mixed 1:1 with pure corn oil fatty acid (equivalent to 1:2 fatty amide:fatty acid) were incubated in shake flasks with fermentation broth containing the Saccharomyces butanologen NGCI-070 at a ratio of 3 parts broth to 1 part amide/acid mixture. […] Starting at a glucose concentration of 8.35 g/L, the shake flasks were then incubated for 25 h on an incubator shaker and the consumption of glucose followed as a function of time.

strain NGCI-065 = assay: Extractive fermentation, examples GLNOR635A-640A
Description: as §1, §2, §3, §4, §5
Fermentation vessels (Applikon AD1010 Bioreactor, Applikon Biotechnology, Dover, N.J.) were sterilized with diH2O for 30 minutes (Amsco Renaissance 3033 Revas Steam Sterilizer, Steris Corporation, Mentor, Ohio). Once the vessels were finished sterilization in the autoclave and cooled to 30° C., the sterile diH2O was removed and the filter sterilized fermentation media was added to a volume of 280 mL. 70 mL of the aqueous phase from the second stage seed flasks was added to the fermentation vessel for a final aqueous volume of 350 mL. […] The fermentation was sampled approximately every 8 hours from the time of inoculation to monitor glucose concentration, which was maintained between 5-20 g/L through the addition of 50% w/w glucose solution, and analyzed for isobutanol accumulation in both the aqueous phase and the extractant phase. […]

CCCCCCC(CO)CCCC (stereo not drawn) [Isofol ™ 12, 2-butyl-1-octanol]
Kp (solvent partition coefficient) (strain NGCI-070; listed as GLNOR749): 4.05 | Kp (solvent partition coefficient) (strain NGCI-070; listed as GLNOR750): 4.22

CCCCCCCC/C=C\CCCCCCCCO [Oleyl Alcohol]
Glucose conc. ([1]; 18 hrs): 4.26 g/L and 4.46 g/L | Glucose conc. ([1]; 25 hrs): 0 g/L | Glucose conc. ([1]; Time = 0): 8.35 g/L | Kp (solvent partition coefficient) (strain NGCI-065; pH 5.5, fermentation broth): 3.38 | Kp (solvent partition coefficient) (strain NGCI-070; listed as GLNOR661): 3.35 | Kp (solvent partition coefficient) (strain NGCI-070; listed as GLNOR690): 3.74 | Kp (solvent partition coefficient) (strain NGCI-070; listed as GLNOR691): 3.77

CCCCCCCC/C=C\CCCCCCCC(=O)O [Oleic Acid]
Kp (solvent partition coefficient) (strain NGCI-065; pH 4.5, fermentation broth, listed as GLNOR639): 2.54 | Kp (solvent partition coefficient) (strain NGCI-065; pH 4.5, fermentation broth, listed as GLNOR640): 2.51 | Kp (solvent partition coefficient) (strain NGCI-065; pH 5.5, fermentation broth, listed as GLNOR637): 2.64 | Kp (solvent partition coefficient) (strain NGCI-065; pH 5.5, fermentation broth, listed as GLNOR638): 2.56 | Kp (solvent partition coefficient) (strain NGCI-070; listed as GLNOR665): 2.61 | Kp (solvent partition coefficient) (strain NGCI-070; listed as GLNOR666): 2.51
